Measurements from PubChem BioAssay (NCI).
“And” between values parts separate entries of the source, which are not always exact repeats. Equal entries are not always repeated.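 Five concentrations, 48 hours, 96-well plates. GI50: concentration for 50% inhibition of growth. TGI: concentration producing complete growth inhibition.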

What was measured:
Assay in all cases: NCI anticancer screen, dose series, 48 h
OVCAR-3 ovarian = test system: OVCAR-3 ovarian
TK-10 renal = test system: TK-10 renal
T-47D breast = test system: T-47D breast
UACC-62 melanoma = test system: UACC-62 melanoma
ACHN renal = test system: ACHN renal
SK-MEL-28 melanoma = test system: SK-MEL-28 melanoma
K-562 leukemia = test system: K-562 leukemia
UO-31 renal = test system: UO-31 renal
RXF 393 renal = test system: RXF 393 renal
SK-OV-3 ovarian = test system: SK-OV-3 ovarian

Structure (SMILES) | TGI (OVCAR-3 ovarian) | TGI (TK-10 renal) | TGI (T-47D breast) | TGI (UACC-62 melanoma) | TGI (ACHN renal) | TGI (SK-MEL-28 melanoma) | TGI (K-562 leukemia) | TGI (UO-31 renal) | TGI (RXF 393 renal) | TGI (SK-OV-3 ovarian) | GI50 (OVCAR-3 ovarian) [µM] | GI50 (SK-OV-3 ovarian) [µM] | GI50 (TK-10 renal) [µM] | GI50 (T-47D breast) [µM] | GI50 (UACC-62 melanoma) [µM] | GI50 (ACHN renal) [µM] | GI50 (SK-MEL-28 melanoma) [µM] | GI50 (K-562 leukemia) [µM] | GI50 (UO-31 renal) [µM] | GI50 (RXF 393 renal) [µM]
NC(CCc1ccccc1)(C(=O)O)c1ccccc1 (stereo not given) | > 100 µM | > 100 µM | > 100 µM | > 100 µM | > 100 µM | > 100 µM | > 100 µM | > 100 µM | > 100 µM |  |  |  |  |  |  |  |  |  |  | 
NCCCCN | > 100 µM | > 100 µM | > 100 µM | > 100 µM | > 100 µM | > 100 µM | > 100 µM | > 100 µM | > 100 µM | > 100 µM |  |  |  |  |  |  |  |  |  | 
CC(C)c1ccc2c(c1)[C@@]1(C)CC[C@H](C)C(C)(C)C1CC2 (stereo not given in full) | 63 µM | 33.1 µM | 66.4 µM | 29.9 µM | 32.6 µM | 31.6 µM | > 100 µM | > 100 µM | 33.2 µM | 33.9 µM |  |  |  |  |  |  |  |  |  | 
C[C@H](Nc1ccc(C#N)n(C)c1=O)c1cc2cc(Cl)ccc2[nH]c1=O | > 100 µM | > 100 µM | 94.4 µM | 77.6 µM | > 100 µM | > 100 µM | > 100 µM | > 100 µM | 67.7 µM | 75.1 µM | 24.1 | 23.9 | 37.8 | 17.3 | 20.1 | 27 | 28.5 | 27.1 | 17.6 | 13.3
O=P(O)(O)OP(=O)(O)O | > 100 µM | > 100 µM | > 100 µM | > 100 µM | > 100 µM | > 100 µM | > 100 µM | > 100 µM | > 100 µM | > 100 µM |  |  |  |  |  |  |  |  |  | 
CC(C)(C)OC(=O)N1C[C@H](CC(=O)OCc2ccccc2)C[C@H]1C(=O)OCC(Cl)(Cl)Cl | 32.9 µM | > 50 µM | > 50 µM | > 50 µM | > 50 µM | > 50 µM | > 50 µM | 11 µM | > 50 µM | > 50 µM |  |  |  |  |  |  |  |  |  | 
COC1OC(C(=O)CP(=O)(OC)OC)C(OCc2ccccc2)C(OCc2ccccc2)C1OCc1ccccc1 (stereo not given) | 30.3 µM and 28.7 µM | 30.9 µM and 33.9 µM | 39.6 µM and 43.7 µM | 26.6 µM and 28 µM | 29.4 µM and 29.9 µM | 40 µM and 33.2 µM | 63.1 µM and > 100 µM | 30.9 µM and 23.5 µM | 26.3 µM and 29.5 µM | 32.7 µM and 32.6 µM |  |  |  |  |  |  |  |  |  | 
CCN(CC)/[N+]([O-])=N/OC | > 100 µM | > 100 µM |  | > 100 µM | > 100 µM | > 100 µM | > 100 µM | > 100 µM | > 100 µM | > 100 µM |  |  |  |  |  |  |  |  |  | 
Cc1cc(O)c2c(c1O)C(=O)c1c(O)ccc(O)c1C2=O | > 100 µM | > 100 µM | > 100 µM | > 100 µM | > 100 µM |  | > 100 µM |  | > 100 µM | > 100 µM |  |  |  |  |  |  |  |  |  | 
CCOC(=O)C(=CNC(Cc1c[nH]c2ccccc12)C(=O)OC)C(=O)OCC (stereo not given) | > 100 µM | > 100 µM |  | > 100 µM | > 100 µM | > 100 µM | > 100 µM | > 100 µM |  | > 100 µM |  |  |  |  |  |  |  |  |  | 
COc1ccc(Cc2nc3cc(Cl)ccc3o2)cc1 | 94.1 µM | > 100 µM | 91.1 µM | > 100 µM | > 100 µM | > 100 µM | > 100 µM | > 100 µM | 70.2 µM | > 100 µM |  |  |  |  |  |  |  |  |  | 
CCCCCCOC(=O)C(N)Cc1ccc(OC)cc1 (stereo not given) | > 100 µM | > 100 µM | > 100 µM | > 100 µM | > 100 µM | > 100 µM | > 100 µM | > 100 µM | > 100 µM | > 100 µM |  |  |  |  |  |  |  |  |  | 
COC(=N)C(C)C | > 100 µM | > 100 µM |  | > 100 µM | > 100 µM | > 100 µM | > 100 µM | > 100 µM | > 100 µM | > 100 µM |  |  |  |  |  |  |  |  |  | 
C/C(=C\CNc1ncnc2nc(Cl)[nH]c12)CO | > 100 µM | > 100 µM | > 100 µM |  | > 100 µM | > 100 µM | > 100 µM | > 100 µM | > 100 µM | > 100 µM |  |  |  |  |  |  |  |  |  | 
O=S1c2ccccc2N=C(c2ccc3ccccc3c2)CC1c1ccccc1 (stereo not given) |  | 68.7 µM |  | > 100 µM | 31.8 µM | > 100 µM | 62.1 µM | 32.4 µM |  | 92.6 µM |  |  |  |  |  |  |  |  |  | 
C=C1CCCC(C)(C)[C@@H]1CC/C(C)=C/Cn1c2cccc(=O)c-2nc2ccccc21 | 18.9 µM and 12.5 µM |  |  | 2.47 µM |  | 3.46 µM and 17.6 µM | > 100 µM |  |  | 10.7 µM |  |  |  |  |  |  | 1.82 |  | 3.91 | 

Structure (SMILES) | TGI (OVCAR-3 ovarian) | TGI (TK-10 renal) | TGI (T-47D breast) | TGI (UACC-62 melanoma) | TGI (ACHN renal) | TGI (SK-MEL-28 melanoma) | TGI (K-562 leukemia) | TGI (UO-31 renal) | TGI (RXF 393 renal) | TGI (SK-OV-3 ovarian) | GI50 (OVCAR-3 ovarian) [µM] | GI50 (SK-OV-3 ovarian) [µM] | GI50 (TK-10 renal) [µM] | GI50 (T-47D breast) [µM] | GI50 (UACC-62 melanoma) [µM] | GI50 (ACHN renal) [µM] | GI50 (SK-MEL-28 melanoma) [µM] | GI50 (K-562 leukemia) [µM] | GI50 (UO-31 renal) [µM] | GI50 (RXF 393 renal) [µM]
CC(C)(C)c1ccc(O)c(Br)c1 | > 100 µM | > 100 µM | > 100 µM | > 100 µM | > 100 µM | > 100 µM | > 100 µM | > 100 µM | > 100 µM | > 100 µM |  |  |  |  |  |  |  |  |  | 
COc1cccc(/C=N/[N-]C(N)=O)c1[O-].[Cu+2].[OH3+].c1cnc2c(c1)ccc1cccnc12 | 36.1 µM | 30.4 µM |  | 22.3 µM | 40.3 µM | 29.7 µM | 39.3 µM | 38.2 µM |  | 25.2 µM |  |  |  |  |  |  |  |  |  | 
O=c1oc2c(ccc3occc32)c(N2CCCCC2)c1-c1ccccc1 | > 100 µM |  |  | > 100 µM |  | > 100 µM | > 100 µM | > 30.3 µM | > 100 µM | > 100 µM |  | > 100 |  |  |  |  |  |  |  | 
Fc1cc(C2=C[C@H](c3ccc4c(c3)OCO4)NC(=S)N2)c(Cl)cc1Cl | > 100 µM | 96.4 µM | > 100 µM | > 100 µM | > 100 µM | > 100 µM | > 100 µM | > 100 µM | > 100 µM | > 100 µM |  |  |  |  |  |  |  |  |  | 
O=C(N/N=C\c1ccc([N+](=O)[O-])cc1)Nc1ccccc1 | > 100 µM | > 100 µM | > 100 µM | > 100 µM |  | > 100 µM | > 100 µM | > 100 µM | > 100 µM | > 100 µM |  |  |  |  |  |  |  |  |  | 
CC(C)(C)OC(=O)N1C(C2=COc3ccccc3O2)=COc2cccnc21 | 3.31 µM | 7.72 µM | 3.45 µM | 3.17 µM | 3.19 µM | 3.47 µM | 5.33 µM | 3.1 µM | 3.06 µM | 3.99 µM |  |  |  |  |  |  |  |  |  | 
NC(N)=NS(=O)(=O)c1ccc(Nc2c3ccccc3nc3c(C(=O)N4CCN(CCO)CC4)ccc(Cl)c23)cc1 | > 100 µM | > 100 µM |  | > 100 µM | > 100 µM | > 100 µM | > 100 µM | > 100 µM | > 100 µM | > 100 µM |  |  |  |  |  |  |  |  |  | 
Clc1ccc(NCc2nnc(COc3ccc(OCc4nnc(CNc5ccc(Cl)cc5)o4)c(Cl)c3)o2)cc1 | 93.5 µM | > 100 µM | > 100 µM | > 100 µM | > 100 µM | > 100 µM |  | > 100 µM | > 100 µM |  |  |  |  |  |  |  |  |  |  | 
O=C(CSc1nc2ccc(Cl)cc2c(=O)n1-c1ccccc1)N=Nc1c(O)[nH]c2ccc(F)cc12 | 4 µM | 15.5 µM | 4.8 µM | 7.1 µM | 4.1 µM | 11.3 µM | 11.3 µM | 0.411 µM | 4.26 µM | 22.3 µM |  |  |  |  |  |  |  |  |  | 
COc1cc(S(=O)(=O)N/N=C/C=C/c2ccccc2)c(OC)cc1NC(C)=O | > 100 µM |  | > 100 µM | > 100 µM | > 100 µM | > 100 µM |  | > 100 µM | > 100 µM | > 100 µM |  |  |  |  |  |  |  |  |  | 
COC(=O)c1c(O)ccc2c1c1c(n2Cc2ccccn2)C(=O)c2ccccc2C1 | > 100 µM | > 100 µM |  | > 100 µM |  | > 100 µM | > 100 µM | > 100 µM | > 100 µM | > 100 µM |  |  |  |  |  |  |  |  |  | 
Cc1cc(N2CCOCC2)nc(N(CCCNc2ccnc3cc(Cl)ccc23)Cc2ccc3c(c2)OCO3)n1 | 0.738 µM |  | 3.93 µM |  |  |  | 2.42 µM |  |  | 4.54 µM | 0.253 | 2.29 |  | 1.41 |  |  |  | 0.436 |  | 
O=CC(O)C(O)C(O)COc1cc(CO)cc2c1C(=O)c1ccccc1C2=O (stereo not given) | > 100 µM | > 100 µM |  | > 100 µM | > 31.6 µM | > 100 µM | > 100 µM | > 100 µM | > 100 µM | > 100 µM |  |  |  |  |  |  |  |  |  | 
CC(Br)C(=O)c1ccc2cc(Br)c3ccccc3c2c1 (stereo not given) | 26.6 µM | 33.1 µM | 30.5 µM | 28.7 µM | 31.4 µM | 34 µM | 42.9 µM | 32 µM | 30.2 µM | 30.8 µM |  |  |  |  |  |  |  |  |  | 
CC(C)=CCC/C(C)=C/CC/C(C)=C/[C@@H]1[C@@H](CO)[C@]1(C)CC/C=C(\C)CCC=C(C)C | > 100 µM | > 100 µM | > 100 µM |  | 31.5 µM | > 100 µM | > 100 µM | 34.3 µM | 72.8 µM | > 100 µM |  |  |  |  |  |  |  |  |  | 
